# Experimental data from patent US20210308173A1, “PHARMACEUTICAL COMPOSITION COMPRISING CYCLODEXTRIN COMPLEXES OF ANETHOLE TRITHIONE OR DERIVATIVES THEREOF” (priority 2018, published 2021).
# Tests used:
# [1] = Cyclodextrin solubilization screening of AOL; type: physicochemical; conditions: for CD/AOL molar ratio RM / CD/AOL weight ratio Rm: 25° C.; for solubility at 3 h / solubility at 20 h: 25 °C, thermodynamic from solid
# Protocol: This assay evaluated the potential of different cyclodextrins to solubilize AOL. A solubilization screening is carried out with the four cyclodextrins (CD) selected from α-CD, γ-CD, HP-β-CD and SBE-β-CD.
# Aqueous solutions containing 100 mM of cyclodextrin are prepared in pure water. An excess of AOL (approximately 5 mg/mL) is suspended in 2 mL of each of these cyclodextrin solutions. Each duplicate sample is shaken at 25° C. for 3 hours and 20 hours (vortex to 1400 rpm). Each sample is centrifuged (12,500 g) then filtered through a 0.45 μm membrane. The solubility of the AOL is quantified by HPLC as previously described (Example 2).
# [2] = Optimal SBE-β-CD/AOL molar ratio for solubilization; type: physicochemical
# From the text: Using an optimized AOL/SBE-β-CD molar ratio enabled the Applicant to overcome all the aforementioned shortcomings. Indeed, the obtained formulation can be injected without exceeding the daily cyclodextrin administration threshold, solubilizes AOL without presenting a prohibiting viscosity. The chemical stability of AOL was maintained by such a formulation. […] Without willing to be bound by a theory the complex association (interaction outside the cavity of the cyclodextrin) enhances its solubility without hindering its bioavailability when the formulation is administered to a subject in need thereof.
# [3] = background statement; cited from earlier work
structure (smiles),measurement,setting,value
"COc1ccc(-c2cc(=S)ss2)cc1 [AOL, 5-(4-methoxyphenyl)-3H-1,2-dithiole-3-thione]",CD/AOL molar ratio RM,"[1]; HP-β-CD 100 mM, stirring 3 h",218
same,CD/AOL weight ratio Rm,"[1]; HP-β-CD 100 mM, stirring 3 h",1270
same,CD/AOL molar ratio RM,"[1]; HP-β-CD 100 mM, stirring 20 h",252
same,CD/AOL weight ratio Rm,"[1]; HP-β-CD 100 mM, stirring 20 h",1465
same,CD/AOL molar ratio RM,"[1]; SBE-β-CD 100 mM, stirring 3 h",169
same,CD/AOL weight ratio Rm,"[1]; SBE-β-CD 100 mM, stirring 3 h",1575
same,CD/AOL molar ratio RM,"[1]; SBE-β-CD 100 mM, stirring 20 h",150
same,CD/AOL weight ratio Rm,"[1]; SBE-β-CD 100 mM, stirring 20 h",1395
same,solubility at 3 h,"[1]; aqueous cyclodextrin solution, aqueous with cosolvent or surfactant or cyclodextrin, HP-β-CD 100 mM, stirring 3 h",110 µg/mL
same,solubility at 20 h,"[1]; aqueous cyclodextrin solution, aqueous with cosolvent or surfactant or cyclodextrin, HP-β-CD 100 mM, stirring 20 h",95.5 µg/mL
same,solubility at 3 h,"[1]; aqueous cyclodextrin solution, aqueous with cosolvent or surfactant or cyclodextrin, SBE-β-CD 100 mM, stirring 3 h",142 µg/mL
same,solubility at 20 h,"[1]; aqueous cyclodextrin solution, aqueous with cosolvent or surfactant or cyclodextrin, SBE-β-CD 100 mM, stirring 20 h",161 µg/mL
same,solubility at 3 h,"[1]; aqueous cyclodextrin solution, aqueous with cosolvent or surfactant or cyclodextrin, α-CD 100 mM, stirring 3 h",8.83 µg/mL
same,solubility at 20 h,"[1]; aqueous cyclodextrin solution, aqueous with cosolvent or surfactant or cyclodextrin, α-CD 100 mM, stirring 20 h",13.5 µg/mL
same,solubility at 3 h,"[1]; aqueous cyclodextrin solution, aqueous with cosolvent or surfactant or cyclodextrin, γ-CD 100 mM, stirring 3 h",2.86 µg/mL
same,solubility at 20 h,"[1]; aqueous cyclodextrin solution, aqueous with cosolvent or surfactant or cyclodextrin, γ-CD 100 mM, stirring 20 h",1.67 µg/mL
same,solubility at 3 h,"[1]; water, None-H2O, stirring 3 h",0.22 µg/mL
same,solubility at 20 h,"[1]; water, None-H2O, stirring 20 h",0.16 µg/mL
same,CD/AOL molar ratio RM,"[1]; α-CD 100 mM, stirring 3 h",2721
same,CD/AOL weight ratio Rm,"[1]; α-CD 100 mM, stirring 3 h",11010
same,CD/AOL molar ratio RM,"[1]; α-CD 100 mM, stirring 20 h",1779
same,CD/AOL weight ratio Rm,"[1]; α-CD 100 mM, stirring 20 h",7198
same,CD/AOL molar ratio RM,"[1]; γ-CD 100 mM, stirring 3 h",8399
same,CD/AOL weight ratio Rm,"[1]; γ-CD 100 mM, stirring 3 h",45316
same,CD/AOL molar ratio RM,"[1]; γ-CD 100 mM, stirring 20 h",14405
same,CD/AOL weight ratio Rm,"[1]; γ-CD 100 mM, stirring 20 h",77723
same,SBE-β-CD/AOL molar ratio at which optimal solubilization was observed,[2],> 29
same,intrinsic aqueous solubility,[3],less than 0.3 mg/L
